Assay results taken from patent publication US20250290110A1, “MOGROSIDE COMPOSITIONS AND METHODS OF PRODUCING SAME” (Elo Life Systems, priority 2024, published 2025).
Values joined by “and” are separate entries in the source; they are usually repeats but may differ in a detail not shown here. Equal values may be shown once. “Also recorded” adds a separate entry of the source.

Tests used:
[1] = Temporal properties: onset of sweetness, time to maximum sweetness, aftertaste decay, trained sensory panel; assay type: in vivo, human
Procedure: Equi-sweet solutions at about 6 SEV were made in spring water (Ice Mountain, retail) of the following sweeteners: purified mogroside-V (Chem Faces, CFS202202), rebaudioside M (95%, Tate & Lyle, lot #1802-2302-1), rebaudioside A (95%, Tate & Lyle, 210617-01), and monk fruit (50% mogroside V, Tate & Lyle, 45GF220305). Another solution was prepared at about 6 SEV of a blend composed of 80% purified mogroside-V (Chem Faces, CFS202202), 15% 11-oxo-mogroside-V (Chem Faces, CFS202201), and 5% mogroside IIIA-1 (Chem Faces, CFS202201). The concentration of each solution can be found in Table 7.
A set of samples of each solution was evaluated by a panel of 7-9 trained judges. Panelists measured the time to onset of sweetness and time to reach maximum sweetness using a timer. Sweetness decay after expectorating was measured by rating sweetness intensity every 5 seconds on a 15-cm line scale graduated in evenly spaced 5-point increments and labeled low (0) to high (60). Samples were served at room temperature in 4-oz soufflé cups, labeled with random 3-digit codes. Water and saltine crackers were provided for rinsing between samples. Blind duplicates were evaluated in a second panel under the same conditions.
(§1) A solution of V90 was made at 410 ppm in spring water (Ice Mountain, retail) to be about 6 SEV. A second solution was made at about 6 SEV of purified mogroside-V (Chem Faces, CFS202202) at 325 ppm. A panel of 7-8 trained judges evaluated the temporal properties and taste attributes of each sample, including blind duplicates, in the same manner described previously in the Mogroside Blend 80/15/5 Taste Quality sections.
Two individual mogroside components of the blend, 11-oxo mogroside-V (Chem Faces, […]) and mogroside III-A1 (Chem Faces, 202301), were evaluated separately in spring water (Ice Mountain, retail) to determine the concentration needed to reach approximately 6 SEV. Solutions were then prepared at 3600 ppm of 11-oxo-mogroside-V and 600 ppm mogroside IIIA-1.
A panel of 6-7 trained judges evaluated the solutions by measuring the time to onset of sweetness and time to reach maximum sweetness using a timer. Decay of lingering aftertaste after expectorating was measured by rating sweetness intensity every 5 seconds on a 15-cm line scale graduated in evenly spaced 5-point increments and labeled low (0) to high (60). Samples were served at room temperature in 4-oz soufflé cups, labeled with random 3-digit codes, including blinded duplicates. Water and saltine crackers were provided for rinsing between samples.

[2] = Descriptive analysis of sweetener attributes, sensory panel, 15-cm line scale; assay type: in vivo, human; settings: for taste quality in words: sensory panel; for Astringent, average intensity score / Bitter Linger, average intensity score / Bitterness, average intensity score / Body, average intensity score / Caramel, average intensity score / Fruity, average intensity score / Licorice, average intensity score / Sweet Linger, average intensity score / Sweetness, average intensity score: about 6 SEV in spring water, 0=low, 60=high
From the text: The same samples described above were presented to a panel of 6-9 experienced judges for descriptive analysis. Solutions were blind-coded with random 3-digit codes and served at room temperature for evaluation. Panelists individually scored attributes of each sample, such as sweetness intensity, bitterness, astringency, and the presence of side flavors such as licorice or fruitiness. Scores were based on a 15-cm line scale marked with evenly spaced 5-point increments from low (0) to high (60). Samples were evaluated in duplicate. Water and saltine crackers were provided for rinsing between samples.
as §1
The panel also evaluated the intensity of several sensory attributes such as bitterness, astringency, caramel flavor, and fruitiness. The same 15-cm line scale was used for scoring, labeled from low (0) to high (60) with evenly spaced 5-point increments. The samples were served in 4-oz soufflé cups that were labeled with random 3-digit codes. Samples were evaluated at room temperature and included blind duplicates. Water and saltine crackers were provided for rinsing between samples. A 400-ppm solution of V90 (Huacheng Bio, LHGE-230401) was tasted as a reference at the beginning of the descriptive analysis session for calibration verification among panelists.

[3] = Sweetness concentration response curve against sucrose reference standards, trained sensory panel; assay type: in vivo, human; settings: for Potency at 5 SEV / potency, times as sweet as sucrose at 5 SEV: spring water, room temperature; for potency, times as sweet as sucrose at 5 SEV: at 5 sucrose equivalent value (SEV)
Procedure: A blend composed of 80% purified mogroside-V (Chem Faces, CFS202202), 15% 11-oxo-mogroside-V (Chem Faces, CFS202201), and 5% mogroside IIIA-1 (Chem Faces, CFS202201) was diluted to six different concentrations (from 100 ppm to 650 ppm) in spring water (Ice Mountain, retail). For each solution, a set of five reference standards of sucrose dissolved in water in 0.5% (w/w) concentration increments was also prepared. Each concentration of the mogroside blend was evaluated by 6-8 trained judges. Samples were presented in 4-oz soufflé cups at room temperature, and the test sample was labeled with a random 3-digit code. Panelists tasted the blind-coded sample compared to the set of reference samples to determine the sweetness intensity score to the nearest 0.1 unit. Each concentration was evaluated in duplicate. The sweetness intensity scores were then plotted against the mogroside blend concentration to make a concentration response curve, and the best fitting Beidler equation was generated.
V90 is a 90% pure mogroside V containing about 6% 11-oxo mogroside-V. Five different concentrations of V90 (Huacheng Bio, LHGE-230401), ranging from 100 ppm to 500 ppm, were diluted in spring water (Ice Mountain, retail). Each dilution was presented to a panel of 7-8 judges experienced in evaluating sweeteners and was accompanied by a range of five sucrose solution reference standards bracketing the sweetness intensity of the test sample in 0.5% (w/w) increments. Panelists assigned a sweetness intensity score to each test sample, including blind duplicates, to the nearest 0.1 unit. All samples were served at room temperature in 4-oz soufflé cups with the test samples labeled with random 3-digit codes. Water and saltine crackers were provided for rinsing between samples.
Both individual mogrosides were also evaluated at five different concentrations in spring water (Ice Mountain, retail) for sweetness intensity. 11-oxo-mogroside was diluted to concentrations ranging from 200 ppm to 600 ppm and mogroside IIIA-1 was diluted to concentrations from 100 to 500 ppm. For each concentration, a set of five sucrose solution reference standards were prepared in 0.5% (w/w) increments to approximately bracket the sweetness intensity of the test sample. A panel of 6-8 trained judges evaluated each test sample in duplicate, accompanied by the corresponding reference standards, and assigned a sweetness intensity score to the sample to the nearest 0.1 unit. Samples were presented in 4-oz soufflé cups at room temperature, and the test sample was labeled with a random 3-digit code. The sweetness intensity scores were then plotted as a function of mogroside concentration to make a concentration response curve, and the best fitting Beidler equation was generated.
The error bars around each point represent 1 standard deviation. The data fit a Beidler equation with an r2 value of 0.961. The equation for this line is:
SEV=16.08*C/(521.2+C) • where SEV is the % sucrose equivalent sweetness as determined by sensory panel and C is the concentration of mogroside blend in ppm or mg/L.
P=SEV*10,000/C • where C is the concentration of the mogroside blend in ppm or mg/L and SEV is the % sucrose equivalent sweetness determined by sensory panel.

[4] = cited from earlier work
[5] = sucrose, not evaluated in this test
[6] = solutions at about 6 SEV, room temperature

Row | SMILES | sweetness decay time after expectorating ([1]; solutions at about 6 SEV) | taste quality in words [2] | Potency at 5 SEV [3] | Astringent, average intensity score [2] | Bitter Linger, average intensity score [2] | Bitterness, average intensity score [2] | Body, average intensity score [2] | Caramel, average intensity score [2] | Fruity, average intensity score [2] | Licorice, average intensity score [2] | Sweet Linger, average intensity score [2] | Sweetness, average intensity score [2] | SEV at 1,000 ppm ([3]; from Beidler curve) | also measured
1 | C=C1C[C@@]23CC[C@H]4[C@@](C)(CCC[C@@]4(C)C(=O)O[C@@H]4O[C@H](CO)[C@@H](O)[C@H](O)[C@H]4O)[C@@H]2CC[C@]1(O[C@@H]1O[C@H](CO)[C@@H](O)[C@H](O[C@@H]2O[C@H](CO)[C@@H](O)[C@H](O)[C@H]2O)[C@H]1O[C@@H]1O[C@H](CO)[C@@H](O)[C@H](O)[C@H]1O)C3 [Rebaudioside A, rebaudioside A] | about 40 seconds | a bitter taste continued to linger; also recorded: notable bitterness compared to the other sweeteners | – | – | – | – | – | – | – | – | – | – | – | –
2 | C[C@H](CC[C@@H](O[C@@H]1O[C@H](CO[C@@H]2O[C@H](CO)[C@@H](O)[C@H](O)[C@H]2O)[C@@H](O)[C@H](O)[C@H]1O[C@@H]1O[C@H](CO)[C@@H](O)[C@H](O)[C@H]1O)C(C)(C)O)[C@H]1CC[C@@]2(C)[C@@H]3CC=C4[C@@H](CC[C@H](O)C4(C)C)[C@]3(C)[C@H](O)C[C@]12C [Mogroside IIIA-1, mogroside IIIA-1] | – | strongly bitter with a strong lingering bitter aftertaste | 71× | 5.1 | 37.3 | 37.3 | 12.1 | 1.9 | 0.7 | 2.2 | 5.7 | 34.5 | – | duration of bitter taste after expectorating ([1]; 600 ppm, about 6 SEV): more than 60 seconds; SEV at which the concentration response curve plateaus ([3]; in vivo): 4-5 SEV; concentration at which sweetness plateaus ([3]; in vivo): about 500 ppm; taste quality in words ([2]; listed as mogroside IIIA-1): strong bitter aftertaste that almost immediately overwhelmed any lingering sweet sensation
3 | C=C1C[C@@]23CC[C@H]4[C@@](C)(CCC[C@@]4(C)C(=O)O[C@@H]4O[C@H](CO)[C@@H](O)[C@H](O[C@@H]5O[C@H](CO)[C@@H](O)[C@H](O)[C@H]5O)[C@H]4O[C@@H]4O[C@H](CO)[C@@H](O)[C@H](O)[C@H]4O)[C@@H]2CC[C@]1(O[C@@H]1O[C@H](CO)[C@@H](O)[C@H](O[C@@H]2O[C@H](CO)[C@@H](O)[C@H](O)[C@H]2O)[C@H]1O[C@@H]1O[C@H](CO)[C@@H](O)[C@H](O)[C@H]1O)C3 [Rebaudioside M, rebaudioside M] | 50 s | – | – | – | – | – | – | – | – | – | – | – | – | –
4 | OC[C@H]1O[C@@](CO)(O[C@H]2O[C@H](CO)[C@@H](O)[C@H](O)[C@H]2O)[C@@H](O)[C@@H]1O [sucrose] | – | – | – | – | – | – | – | – | – | – | – | – | – | sweetness decay time (typical value) ([4]; 6 SEV solution of sucrose): 20 to 25 s; onset of sweetness (general value, not evaluated in this test) [4, 5]: about 0.5 seconds; time to reach maximum sweetness (general value, not evaluated in this test) [4, 5]: around 1 second
5 | C[C@H](CC[C@@H](O[C@@H]1O[C@H](CO[C@@H]2O[C@H](CO)[C@@H](O)[C@H](O)[C@H]2O)[C@@H](O)[C@H](O)[C@H]1O[C@@H]1O[C@H](CO)[C@@H](O)[C@H](O)[C@H]1O)C(C)(C)O)[C@H]1CC[C@@]2(C)[C@@H]3CC=C4[C@@H](CC[C@H](O[C@@H]5O[C@H](CO[C@@H]6O[C@H](CO)[C@@H](O)[C@H](O)[C@H]6O)[C@@H](O)[C@H](O)[C@H]5O)C4(C)C)[C@]3(C)C(=O)C[C@]12C [11-oxo-mogroside V] | about 45 seconds | slight bitterness | 28× | 4.3 | 0.7 | 7.7 | 12.7 | 4.8 | 2.1 | 2.1 | 17.1 | 37.1 | 4.2 SEV | potency, times as sweet as sucrose at 5 SEV ([3]; listed as 11-oxo mogroside-V): approximately 28 times as sweet as sucrose; potency, times as sweet as sucrose at 5 SEV ([3]; listed as 11-oxo-mogroside-V): 28 times as sweet as sucrose
6 | C[C@H](CC[C@@H](O[C@@H]1O[C@H](CO[C@@H]2O[C@H](CO)[C@@H](O)[C@H](O)[C@H]2O)[C@@H](O)[C@H](O)[C@H]1O[C@@H]1O[C@H](CO)[C@@H](O)[C@H](O)[C@H]1O)C(C)(C)O)[C@H]1CC[C@@]2(C)[C@@H]3CC=C4[C@@H](CC[C@H](O[C@@H]5O[C@H](CO[C@@H]6O[C@H](CO)[C@@H](O)[C@H](O)[C@H]6O)[C@@H](O)[C@H](O)[C@H]5O)C4(C)C)[C@]3(C)[C@H](O)C[C@]12C [Mogroside V, mogroside V] | – | – | 185× | 2.9 and 2.5 | 0.0 | 1.1 and 1.4 | 11.9 and 12.1 | 4.2 and 4.5 | 2.6 and 3.0 | 0.8 and 0.7 | 16.2 and 14.3 | 35.9 and 36.3 | 11.5 SEV | onset of sweetness [1, 6]: 1.1 s; time to reach maximum sweetness [1, 6]: 2.5 s; Beidler equation denominator constant (SEV=a*C/(b+C), b) ([3]; C = concentration): 920.8 ppm or mg/L; Beidler equation numerator constant (SEV=a*C/(b+C), a) ([3]; SEV = % sucrose equivalent sweetness): 22.03; potency, times as sweet as sucrose at 5 SEV ([3]; listed as mogroside V): 185 times as sweet as sucrose; potency, times as sweet as sucrose at 5 SEV ([3]; listed as mogroside-V): about 185 times as sweet as sucrose; potency, times as sweet as sucrose at 5 SEV ([3]; listed as purified Mog-V): ~200 times as sweet as sucrose; Potency at 10 SEV ([3]; at 10 SEV, from Beidler curve): 131×
